The source made the active and inactive calls. No cut-off for these calls is given here.
Key:
Format in all cases: functional, organism-based
[1] = tested on: Nippostrongylus brasiliensis; test: Antimicrobial activity against Nippostrongylus brasiliensis
Staphylococcus aureus = test: Antimicrobial activity against Staphylococcus aureus
[2] = tested on: Trichophyton mentagrophytes; test: Antimicrobial activity against Trichophyton mentagrophytes
Candida albicans = test: Antimicrobial activity against Candida albicans

Compound | Activity [1] | Activity (Staphylococcus aureus) | Activity [2] | Activity (Candida albicans)
[C-]#[N+][C@@H]1[C@H]2[C@H](CC[C@@]1(C)O)[C@](C)(N=C=S)CC[C@@H]2[C@@]1(C)CC[C@H](Cl)C(C)(C)O1 | Active | Active | Active | Active
CC1=CC2=C(C(C)C)CC[C@](C)(N=C=S)[C@@H]2CC1 | inactive |  |  | 
CC1=CC[C@@H](C(C)C)[C@H]2C[C@@](C)(N=C=S)CC[C@@H]12 (relative stereo) | inactive |  |  | 
CC1=C[C@H]2[C@@H](CC1)[C@@](C)(N=S)CC[C@H]2C(C)C | inactive |  |  | 
[C-]#[N+][C@@H]1[C@H]2[C@H](CC[C@@]1(C)O)C(=C)CC[C@@H]2[C@@]1(C)CC[C@H](Cl)C(C)(C)O1 | inactive |  |  | 
CC1(C)O[C@@](C)([C@H]2CC[C@@](C)(N=C=S)[C@H]3CC[C@@](C)(O)[C@H](NC=O)[C@@H]32)CC[C@@H]1Cl | inactive |  |  | 
[C-]#[N+][C@@H]1[C@H](C(C)C)CC[C@@H](C)[C@@]12C=C(C)CC2 | inactive | Active | Active | Active
